Consider one molecule from patent US20130225694A1, “COMPOSITIONS AND METHODS OF INHIBITING RETINAL DEGENERATION” (Oklahoma Medical Research Foundation, priority 2012, published 2013).

Read-outs that look alike come from different tables or passages of the source.

The target in series [1] is T1, LRAT (Rattus norvegicus, UniProt Q9JI61).
T1 construct: from tissue; host or cells: rat eyecup/RPE microsomes
T1 sequence (Q9JI61 1-231): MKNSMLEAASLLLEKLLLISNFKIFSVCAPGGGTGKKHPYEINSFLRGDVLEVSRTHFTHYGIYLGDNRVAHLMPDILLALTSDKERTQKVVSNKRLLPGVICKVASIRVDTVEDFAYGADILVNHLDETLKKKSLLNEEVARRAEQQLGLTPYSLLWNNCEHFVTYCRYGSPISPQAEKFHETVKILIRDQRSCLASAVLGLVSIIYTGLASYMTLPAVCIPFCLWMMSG
As to the kind of experiment: Retinyl ester production by LRAT in rat RPE microsomes. The class given is biochemical. Particulars: 1 mM PBN. Here is the method:
Isomerohydrolase activity assay and PBN inhibition—Rats were sacrificed, and eyes were enucleated and dissected to remove the anterior part including lens, vitreous, and retina. The remaining eyecups containing RPE were sonicated 3 times for 20 seconds in a cold 0.32 M sucrose/0.1 M sodium phosphate buffer (pH 7.4). The homogenate was centrifuged (20 minutes, 20,000 g) to sediment sclera, unbroken cells, nuclei and mitochondria. The obtained supernatant was recentrifuged (1 hour, 100,000 g), and the microsomal pellet was resuspended in 10 mM 1,3-bis[tris(hydroxymethyl)-methylamino]propane (BTP), (pH 8.0) and 100 mM NaCl, and stored at −80° C. All-trans-[11,12-^3H]-retinol (1 mCi/ml, 45.5 Ci/mmol, American Radiolabeled Chemical, Inc., St. Louis, Mo.) in N,N-dimethyl formamide was used as the substrate for the isomerohydrolase assay. […] The upper layer was collected, and the generated retinoids were analyzed by normal phase HPLC as described (38). […] The isomerohydrolase activity was calculated from the area of the 11-cis-retinol peak using Radiomatic 610TR software (Perkin Elmer, Boston, Mass.) with synthetic 11-cis-[^3H]-retinol as a standard. […] The inhibition constant for PBN was calculated from the following equation: […] where [I]=concentration of PBN, Vm^i=maximal velocity in the presence of Vm=maximal velocity in the absence of PBN. […]

The test system of series [2] is mouse retina. Put plainly: Light-damage protection by topical PBN eye drops in mice (ERG). The class given is in vivo. Particulars: 10% PBN eye drop in V1 or V2; 3,000 lux 6 h; ERG five days after. The procedure: After topical application of PBN, light-damage was done at 3,000 lux for 6 h. ERG response were recorded five days after light-damage. Two vehicles were used to solubilize and make 10% PBN eye drop formulation for topical application on mouse eye, vehicle 1 (V-1) and vehicle 2 (V-2).
After topical application of PBN, light-damage was done at 3,000 lux for 6 h. ERG responses were recorded five days after light-damage. Two vehicles were used to solubilize and make the 10% PBN eye drop formulation for topical application on mouse eyes, vehicle 1 (V-1) and vehicle 2 (V-2). […] Vehicle 1 contains 10 mM potassium borate/bicarbonate buffer (pH 7.2), glycerine, 1.0%, carboxymethylcellulose 0.3%, benzyl alcohol 0.3%, and 30% 1-methyl-2-pyrrolidinone (a solubilizing enhancer, a.k.a., N-Methyl-2-Pyrrolidone—“NMP”). Vehicle 2 contains 137 mM sodium chloride, 2.7 mM potassium chloride in 10 mM phosphate buffer (pH 7.4), and 30% 1-methyl-2-pyrrolidinone.

For series [3], the system named is cone photoreceptors. As to the kind of experiment: Cone function by single-flash photopic and flicker-flash ERG in rats. Particulars: 50 mg/kg, 60 minutes after administration, rod-suppressing background. Format: in vivo, rat. The procedure:
To evaluate cone function under conditions in which rod recovery is suppressed, rats were injected with PBN (50 mg/kg) or saline 60 minutes prior to recording single-flash photopic and flicker-flash ERG recordings. Rats were placed under a steady adapting field of 1.7 log cd·s/m^2 for at least 7 minutes. A single flash of 3.3 log cd·s/m^2 was presented under the same adapting field to elicit a maximal cone response. Cone responses were further evaluated by presenting 1.2 log cd·s/m^2 stimuli flickering at frequencies of 3-, 10-, 20-, and 30-Hz under the same adapting field.
To assess the effect of PBN administration on cone function under conditions when rod recovery was suppressed, single- and flicker-flash ERG recordings were performed under a steady, rod-suppressing background illumination 60 minutes after PBN administration.

Series [4] concerns the target T2, RPE65 isomerohydrolase (Bos taurus, UniProt Q28175).
T2 construct: Bovine RPE microsomes were used as a source of the RPE65 protein; from tissue; host or cells: bovine RPE microsomes
As to the kind of experiment: In vitro RPE65 isomerohydrolase assay with bovine RPE microsomes (Example 3). The class given is biochemical. The source says: In this Example, the effect of several PBN analogs on RPE65 isomerohydrolase activity was investigated in an in vitro assay. The chemical structures of the PBN analogs utilized are described herein above. Bovine RPE microsomes were used as a source of the RPE65 protein and all-trans-[^3H] retinol was a substrate for the isomerohydrolase assay. The produced 11-cis-[^3H] retinol was quantified by normal phase HPLC with flow scintillation analyzer. The inhibition of isomerohydrolase activity was dependent on the PBN analog's concentration.
FIG. 9 also illustrates the calculation of IC50 values for the two difluoro-PBN analogs. IC50 values are the concentration of the inhibitor that inhibits 50% of the enzymatic activity. Therefore, the smaller the IC50 value, the better the drug.

The term IC50 denotes the concentration needed to halve the response being measured.

T2 sequence (Q28175 whole entry): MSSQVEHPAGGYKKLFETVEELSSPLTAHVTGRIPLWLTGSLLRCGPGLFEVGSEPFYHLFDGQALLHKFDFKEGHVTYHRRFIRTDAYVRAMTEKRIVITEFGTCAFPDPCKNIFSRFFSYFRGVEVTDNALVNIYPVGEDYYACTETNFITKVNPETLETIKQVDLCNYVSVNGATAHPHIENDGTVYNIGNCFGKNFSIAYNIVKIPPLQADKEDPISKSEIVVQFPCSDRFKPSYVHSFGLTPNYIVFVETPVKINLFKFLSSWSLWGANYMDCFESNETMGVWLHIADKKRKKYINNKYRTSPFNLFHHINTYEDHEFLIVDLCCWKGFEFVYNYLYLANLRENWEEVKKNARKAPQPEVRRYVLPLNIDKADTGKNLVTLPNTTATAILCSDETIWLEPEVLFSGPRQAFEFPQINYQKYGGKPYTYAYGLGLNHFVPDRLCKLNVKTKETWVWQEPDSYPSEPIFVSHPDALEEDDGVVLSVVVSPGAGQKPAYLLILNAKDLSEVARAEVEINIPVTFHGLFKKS

For the molecule `CC(C)(C)/[N+]([O-])=C/c1ccccc1` [Compound 1, α-phenyl-N-tert-butyl nitrone], the “LRAT inhibition (production of retinyl ester)” value in series [1] is “not inhibited”. In addition, the “rod function (scotopic A-wave) after light-damage” value in series [2] is “significant restoration of rod function”. Further, in series [3], the “effect on cone function” value was “not affected”. Besides, the IC50 in series [4] (apparent IC50, bovine RPE microsomes, all-trans-[3H] retinol substrate (Table 1), read-out: IC50 Values for the Inhibition of RPE65 Isomerohydrolase Reaction) was 100 µM; in series [4] (in vitro RPE65 isomerohydrolase IC50 values repeated in Table 7, read-out: IC50) it was 100 µM.
